Publication PMC12040169 (PLOS Biology, 2025)
≈ marks a conversion by molar mass, not a printed value.

Tests used:
[1] = tested on: T1, CTL2-GFP (C. trachomatis L2/434/Bu, GFP-expressing); assay: microbe, parasite or virus in culture; parameters: C. trachomatis growth in HeLa, dose-response, mean of bulk GFP fluorescence and imaged total inclusion area; conditions: Chlamydia trachomatis, HeLa, 28.5 h; mean of GFP and inclusion area
T1 construct: L2/434/Bu, GFP-expressing
Text: (§1) We screened a library of 36,785 small molecules displaying drug-like properties and covering a wide chemical space (Fig 1A and S2A Data). In this process, we also complemented the assay described above with an imaging-based readout (Fig 1B). After measurements of bulk GFP and resorufin fluorescence, cells were fixed, stained with the DNA dye Hoechst, and imaged at a high-content imaging platform to detect chlamydial inclusions (GFP) and host cell nuclei (Hoechst). The total area and number of inclusions in individual wells and the number of nuclei then served as additional proxies for chlamydial growth and host cell viability. […] MICs were calculated as described above.

in vitro = assay: in vitro; parameters: Viability of infected HeLa host cells, resazurin conversion, bulk resorufin fluorescence relative to DMSO; conditions: human, hela cells; bulk resorufin, mean of 3
[2] = tested on: T1, CTL2-GFP (C. trachomatis L2/434/Bu, GFP-expressing); assay: microbe, parasite or virus in culture; parameters: species or system HeLa; C. trachomatis growth in HeLa, dose-response, mean of bulk GFP fluorescence and imaged total inclusion area; conditions: Chlamydia trachomatis, 28.5 h; mean of GFP and inclusion area
Text: as §1

Structure (SMILES): Cc1cccc(-c2ccc(CC3(C(N)=O)CCN(C(=O)CCc4ccccc4)CC3)cc2)c1 [c38e]
- IC50 [1]: 4.84 µM
- viability at 28.5 h, 0.000416667 µM (in vitro): 101%
- viability at 28.5 h, 0.00125 µM (in vitro): 97.3%
- viability at 28.5 h, 0.00375 µM (in vitro): 96.8%
- viability at 28.5 h, 0.0123333 µM (in vitro): 101%
- viability at 28.5 h, 0.037 µM (in vitro): 98.4%
- viability at 28.5 h, 0.111 µM (in vitro): 98.7%
- viability at 28.5 h, 0.333 µM (in vitro): 94.7%
- viability at 28.5 h, 1 µM (in vitro): 103%
- viability at 28.5 h, 3 µM (in vitro): 99.3%
- viability at 28.5 h, 10 µM (in vitro): 104%
- viability at 28.5 h, 30 µM (in vitro): 114%
- MIC [2]: 8.43 µM (≈ 3.71 µg/mL)

Structure (SMILES): COc1ccc([C@@H]2CN(C)C[C@H]2NC(=O)Nc2ccc(Cl)c(Cl)c2)cc1OC [c39e]
- IC50 [1]: 4.96 µM
- viability at 28.5 h, 0.000416667 µM (in vitro): 93.1%
- viability at 28.5 h, 0.00125 µM (in vitro): 88.4%
- viability at 28.5 h, 0.00375 µM (in vitro): 92.6%
- viability at 28.5 h, 0.0123333 µM (in vitro): 90.6%
- viability at 28.5 h, 0.037 µM (in vitro): 94.9%
- viability at 28.5 h, 0.111 µM (in vitro): 83.9%
- viability at 28.5 h, 0.333 µM (in vitro): 87.9%
- viability at 28.5 h, 1 µM (in vitro): 84.4%
- viability at 28.5 h, 3 µM (in vitro): 86.1%
- viability at 28.5 h, 10 µM (in vitro): 84.6%
- viability at 28.5 h, 30 µM (in vitro): 81.3%
- MIC [2]: 5.39 µM (≈ 2.29 µg/mL)

Structure (SMILES): O=C1C(NCCO)=C(Nc2cccc(Cl)c2)C(=O)c2ccccc21 [c45e]
- IC50 [1]: 6.16 µM
- viability at 28.5 h, 0.000416667 µM (in vitro): 89.2%
- viability at 28.5 h, 0.00125 µM (in vitro): 87.4%
- viability at 28.5 h, 0.00375 µM (in vitro): 91%
- viability at 28.5 h, 0.0123333 µM (in vitro): 91.6%
- viability at 28.5 h, 0.037 µM (in vitro): 91.8%
- viability at 28.5 h, 0.111 µM (in vitro): 88.5%
- viability at 28.5 h, 0.333 µM (in vitro): 92.8%
- viability at 28.5 h, 1 µM (in vitro): 89.8%
- viability at 28.5 h, 3 µM (in vitro): 93.6%
- viability at 28.5 h, 10 µM (in vitro): 97.9%
- viability at 28.5 h, 30 µM (in vitro): 102%
- MIC [2]: 19.4 µM (≈ 6.66 µg/mL)

Structure (SMILES): Cc1cccc(OCC(C)NC(=O)NCCc2cnn(C)c2)c1 (centres unmarked) [c47e]
- IC50 [1]: 6.59 µM
- viability at 28.5 h, 0.000416667 µM (in vitro): 97.2%
- viability at 28.5 h, 0.00125 µM (in vitro): 99.7%
- viability at 28.5 h, 0.00375 µM (in vitro): 102%
- viability at 28.5 h, 0.0123333 µM (in vitro): 104%
- viability at 28.5 h, 0.037 µM (in vitro): 105%
- viability at 28.5 h, 0.111 µM (in vitro): 100%
- viability at 28.5 h, 0.333 µM (in vitro): 112%
- viability at 28.5 h, 1 µM (in vitro): 106%
- viability at 28.5 h, 3 µM (in vitro): 109%
- viability at 28.5 h, 10 µM (in vitro): 113%
- viability at 28.5 h, 30 µM (in vitro): 118%
- MIC [2]: 12.1 µM (≈ 3.83 µg/mL)

Structure (SMILES): Oc1ccccc1Nc1nc(NC2CCCC2)c2ccccc2n1 [c49e]
- IC50 [1]: 7.48 µM
- viability at 28.5 h, 0.000416667 µM (in vitro): 84.4%
- viability at 28.5 h, 0.00125 µM (in vitro): 94.9%
- viability at 28.5 h, 0.00375 µM (in vitro): 87.6%
- viability at 28.5 h, 0.0123333 µM (in vitro): 90%
- viability at 28.5 h, 0.037 µM (in vitro): 86%
- viability at 28.5 h, 0.111 µM (in vitro): 91.7%
- viability at 28.5 h, 0.333 µM (in vitro): 87.8%
- viability at 28.5 h, 1 µM (in vitro): 90.1%
- viability at 28.5 h, 3 µM (in vitro): 84.7%
- viability at 28.5 h, 10 µM (in vitro): 90.6%
- viability at 28.5 h, 30 µM (in vitro): 77.3%
- MIC [2]: 10.8 µM (≈ 3.45 µg/mL)

Structure (SMILES): O=C(NCCCn1ccnc1)c1cc(-c2cccc(Br)c2)nc2ccccc12 [c50e]
- IC50 [1]: 7.95 µM
- viability at 28.5 h, 0.000416667 µM (in vitro): 90.5%
- viability at 28.5 h, 0.00125 µM (in vitro): 90.8%
- viability at 28.5 h, 0.00375 µM (in vitro): 90.1%
- viability at 28.5 h, 0.0123333 µM (in vitro): 87.8%
- viability at 28.5 h, 0.037 µM (in vitro): 86.1%
- viability at 28.5 h, 0.111 µM (in vitro): 90.6%
- viability at 28.5 h, 0.333 µM (in vitro): 85.4%
- viability at 28.5 h, 1 µM (in vitro): 89.1%
- viability at 28.5 h, 3 µM (in vitro): 86.3%
- viability at 28.5 h, 10 µM (in vitro): 90%
- viability at 28.5 h, 30 µM (in vitro): 84.8%
- MIC [2]: 9.27 µM (≈ 4.03 µg/mL)

Structure (SMILES): C1=C(CCNCCc2ccccc2)c2ccccc2C12CCCC2 [c51e]
- IC50 [1]: 8.3 µM
- viability at 28.5 h, 0.000416667 µM (in vitro): 99.8%
- viability at 28.5 h, 0.00125 µM (in vitro): 96.2%
- viability at 28.5 h, 0.00375 µM (in vitro): 101%
- viability at 28.5 h, 0.0123333 µM (in vitro): 98.1%
- viability at 28.5 h, 0.037 µM (in vitro): 101%
- viability at 28.5 h, 0.111 µM (in vitro): 97.8%
- viability at 28.5 h, 0.333 µM (in vitro): 99.6%
- viability at 28.5 h, 1 µM (in vitro): 102%
- viability at 28.5 h, 3 µM (in vitro): 100%
- viability at 28.5 h, 10 µM (in vitro): 106%
- viability at 28.5 h, 30 µM (in vitro): 96.5%
- MIC [2]: 9.36 µM (≈ 2.97 µg/mL)

Structure (SMILES): COc1ccc(CC(=O)N2CCCC(c3nc(C)c4c(n3)N(CC3CC3)CCC4)C2)cc1 (centres unmarked) [c52e]
- IC50 [1]: 8.46 µM
- viability at 28.5 h, 0.000416667 µM (in vitro): 85.5%
- viability at 28.5 h, 0.00125 µM (in vitro): 91.1%
- viability at 28.5 h, 0.00375 µM (in vitro): 88.5%
- viability at 28.5 h, 0.0123333 µM (in vitro): 92.2%
- viability at 28.5 h, 0.037 µM (in vitro): 88.5%
- viability at 28.5 h, 0.111 µM (in vitro): 91.4%
- viability at 28.5 h, 0.333 µM (in vitro): 88.5%
- viability at 28.5 h, 1 µM (in vitro): 96.8%
- viability at 28.5 h, 3 µM (in vitro): 90.3%
- viability at 28.5 h, 10 µM (in vitro): 95.6%
- viability at 28.5 h, 30 µM (in vitro): 102%
- MIC [2]: 9.34 µM (≈ 4.06 µg/mL)
